Columns and labels:
Details in all cases: 72 h
Caco-2 [1] = assay: cell viability relative to DMSO; higher = less toxic
HepG2 [2] = assay: as above
U2OS [3] = assay: as above
Vero E6 [4] = assay: as above
Caco-2 [5] = assay: relative viability EC50 (midpoint between 100% and the lowest measured viability); higher = less toxic
HepG2 [6] = assay: as above
U2OS [7] = assay: as above
Vero E6 [8] = assay: as above
Caco-2 [9] = assay: drug sensitivity score (DSS) for viability; higher = more toxic; extreme values may be limits of the assay
HepG2 [10] = assay: as above
U2OS [11] = assay: as above
Vero E6 [12] = assay: as above
Calu-3 [13] = assay: cell viability relative to DMSO; higher = less toxic
Calu-3 [14] = assay: drug sensitivity score (DSS) for viability; higher = more toxic; extreme values may be limits of the assay

SMILES	cell viability (Caco-2 [1]; 1 nM) [%]	cell viability (Caco-2 [1]; 10 nM) [%]	cell viability (Caco-2 [1]; 100 nM) [%]	cell viability (Caco-2 [1]; 1000 nM) [%]	cell viability (Caco-2 [1]; 10000 nM) [%]	cell viability (HepG2 [2]; 1 nM) [%]	cell viability (HepG2 [2]; 10 nM) [%]	cell viability (HepG2 [2]; 100 nM) [%]	cell viability (HepG2 [2]; 1000 nM) [%]	cell viability (HepG2 [2]; 10000 nM) [%]	cell viability (U2OS [3]; 1 nM) [%]	cell viability (U2OS [3]; 10 nM) [%]	cell viability (U2OS [3]; 100 nM) [%]	cell viability (U2OS [3]; 1000 nM) [%]	cell viability (U2OS [3]; 10000 nM) [%]	cell viability (Vero E6 [4]; 1 nM) [%]	cell viability (Vero E6 [4]; 10 nM) [%]	cell viability (Vero E6 [4]; 100 nM) [%]	cell viability (Vero E6 [4]; 1000 nM) [%]	cell viability (Vero E6 [4]; 10000 nM) [%]	relative viability EC50 (Caco-2 [5]) [µM]	relative viability EC50 (HepG2 [6]) [µM]	relative viability EC50 (U2OS [7]) [µM]	relative viability EC50 (Vero E6 [8]) [µM]	drug sensitivity score (Caco-2 [9])	drug sensitivity score (HepG2 [10])	drug sensitivity score (U2OS [11])	drug sensitivity score (Vero E6 [12])	cell viability (Calu-3 [13]; 1 nM) [%]	cell viability (Calu-3 [13]; 10 nM) [%]	cell viability (Calu-3 [13]; 100 nM) [%]	cell viability (Calu-3 [13]; 1000 nM) [%]	cell viability (Calu-3 [13]; 10000 nM) [%]	drug sensitivity score (Calu-3 [14])
CN1CCN(c2cc(-c3ccccc3)nc(N)n2)CC1	92.8	99	95.1	91.8	93	87.5	105	87.8	95.6	116	96.8	98.3	97.6	98	102	98.9	95.4	90.5	94.8	103	> 10	> 10	> 10	> 10	0	0	0	0						
COc1ccc2nc3ccc(Cl)cc3c(SCCCN)c2c1	94.9	99.7	93.9	93.5	99.2	98.6	106	98.8	106	101	98.8	101	98.4	104	98.8	99.7	93.7	93.4	93.2	109	> 10	> 10	> 10	> 10	0	0	0	0						
Cc1ccc2nc(NCCN)c3ncc(C)n3c2c1	95.8	95.9	95.8	102	66	111	100	86.6	79.6	3.6	95.2	96.1	94.6	98.7	28.4	102	92.6	94.5	90.3	44		1.69	3.04	1.86	1.4	8.6	4.1	4.6	91.9	93	89.4	102	70.2	1.2
OCCCNc1cc(-c2ccnc(Nc3cccc(Cl)c3)n2)ccn1	95.9	97.1	91.6	26.1	31.8	93.6	111	93	7.7	5.6	101	95	90.9	5.8	13	94.5	108	81.9	5.3	15.6	0.223	0.266	0.237	0.178	14.9	17.9	18.5	20.1						
N=C(N)NC(=N)Nc1ccccc1 [1-phenylbiguanide]	96.3	94.8	95.5	92.4	98.8	97.3	106	103	109	101	99.3	97.7	103	101	100	100	93.4	94.8	99.4	101	> 10	> 10	> 10	> 10	0	0	0	0						
Brc1c(Br)c(Br)c2[nH]nnc2c1Br [4,5,6,7-tetrabromobenzotriazole]	93.8	107	90.4	95.7	99.2	117	93.9	102	93.3	107	97.2	98	97.9	100	99.2	105	103	101	99.4	103	> 10	> 10	> 10	> 10	0	0	0	0						
